Measured values taken from the supplement of paper PMC10307832.

Legend:
Assay in all cases: relative viability (nuclei count vs DMSO), 5 days (fraction); higher = more cells survive
NCI-H2170 = test system: NCI-H2170
How it was run: (§1)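 Cells from lung cancer lines were seeded into 1536-well plates and, one day later, dosed by pin tool. Treatments were either a single drug or a fixed dose of an anchor drug with five library-drug doses (not always all listed) in √10 steps. After 5 days, nuclei were stained in a one-step fixation (final 0.05% Triton X-100, 1% formaldehyde, 1 ug/ml Hoechst) and counted on 4× images, and relative viability is the treated-to-vehicle nuclei ratio, as the median of duplicate plates.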

A-427 = test system: A-427
How it was run: as §1

EKVX = test system: EKVX
How it was run: as §1

PC-3 [JPC-3] = test system: PC-3 [JPC-3]
How it was run: as §1

ChaGo-K-1 = test system: ChaGo-K-1
How it was run: as §1

NCI-H441 = test system: NCI-H441
How it was run: as §1

HCC-366 = test system: HCC-366
How it was run: as §1

EMC-BAC-2 = test system: EMC-BAC-2
How it was run: as §1

LK-2 = test system: LK-2
How it was run: as §1

NCI-H1755 = test system: NCI-H1755
How it was run: as §1

COR-L 105 = test system: COR-L 105
How it was run: as §1

SW 900 = test system: SW 900
How it was run: as §1

SK-MES-1 = test system: SK-MES-1
How it was run: as §1

NCI-H1975 = test system: NCI-H1975
How it was run: as §1

NCI-H520 = test system: NCI-H520
How it was run: as §1

NCI-H1734 = test system: NCI-H1734
How it was run: as §1

NCI-H1666 = test system: NCI-H1666
How it was run: as §1

NCI-H596 = test system: NCI-H596
How it was run: as §1

LOU-NH91 = test system: LOU-NH91
How it was run: as §1

NCI-H23 = test system: NCI-H23
How it was run: as §1

H3255 = test system: H3255
How it was run: as §1

SMILES: Nc1ccn([C@@H]2O[C@H](CO)[C@@H](O)[C@@H]2O)c(=O)n1 [Cytarabine] + O=C(c1cc(Cc2n[nH]c(=O)c3ccccc23)ccc1F)N1CCN(C(=O)C2CC2)CC1 [Olaparib] (partner 8 µM)
- relative viability (NCI-H2170; first compound 0.005 µM): 0.544
- relative viability (NCI-H2170; first compound 0.01581 µM): 0.47
- relative viability (NCI-H2170; first compound 0.05 µM): 0.408
- relative viability (NCI-H2170; first compound 0.1581 µM): 0.265
- relative viability (NCI-H2170; first compound 0.5 µM): 0.23
- relative viability (A-427; first compound 0.005 µM): 0.479
- relative viability (A-427; first compound 0.01581 µM): 0.551
- relative viability (A-427; first compound 0.05 µM): 0.304
- relative viability (A-427; first compound 0.1581 µM): 0.223
- relative viability (A-427; first compound 0.5 µM): 0.253
- relative viability (EKVX; first compound 0.005 µM): 0.819
- relative viability (EKVX; first compound 0.01581 µM): 0.665
- relative viability (EKVX; first compound 0.05 µM): 0.695
- relative viability (EKVX; first compound 0.5 µM): 0.234
- relative viability (PC-3 [JPC-3]; first compound 0.005 µM): 0.508
- relative viability (PC-3 [JPC-3]; first compound 0.01581 µM): 1.09
- relative viability (PC-3 [JPC-3]; first compound 0.05 µM): 0.971
- relative viability (PC-3 [JPC-3]; first compound 0.1581 µM): 0.682
- relative viability (PC-3 [JPC-3]; first compound 0.5 µM): 0.617
- relative viability (ChaGo-K-1; first compound 0.005 µM): 0.414
- relative viability (ChaGo-K-1; first compound 0.01581 µM): 0.417
- relative viability (ChaGo-K-1; first compound 0.05 µM): 0.32
- relative viability (ChaGo-K-1; first compound 0.1581 µM): 0.238
- relative viability (ChaGo-K-1; first compound 0.5 µM): 0.209
- relative viability (NCI-H441; first compound 0.005 µM): 0.451
- relative viability (NCI-H441; first compound 0.01581 µM): 0.48
- relative viability (NCI-H441; first compound 0.05 µM): 0.375
- relative viability (NCI-H441; first compound 0.1581 µM): 0.354
- relative viability (NCI-H441; first compound 0.5 µM): 0.175
- relative viability (HCC-366; first compound 0.005 µM): 0.316
- relative viability (HCC-366; first compound 0.01581 µM): 0.362
- relative viability (HCC-366; first compound 0.05 µM): 0.32
- relative viability (HCC-366; first compound 0.1581 µM): 0.136
- relative viability (HCC-366; first compound 0.5 µM): 0.0939
- relative viability (EMC-BAC-2; first compound 0.005 µM): 0.53
- relative viability (EMC-BAC-2; first compound 0.01581 µM): 0.449
- relative viability (EMC-BAC-2; first compound 0.05 µM): 0.369
- relative viability (EMC-BAC-2; first compound 0.1581 µM): 0.287
- relative viability (EMC-BAC-2; first compound 0.5 µM): 0.27
- relative viability (LK-2; first compound 0.005 µM): 0.659
- relative viability (LK-2; first compound 0.01581 µM): 0.5
- relative viability (LK-2; first compound 0.05 µM): 0.316
- relative viability (LK-2; first compound 0.1581 µM): 0.164
- relative viability (LK-2; first compound 0.5 µM): 0.148
- relative viability (NCI-H1755; first compound 0.005 µM): 0.893
- relative viability (NCI-H1755; first compound 0.01581 µM): 0.889
- relative viability (NCI-H1755; first compound 0.05 µM): 0.584
- relative viability (NCI-H1755; first compound 0.1581 µM): 0.398
- relative viability (NCI-H1755; first compound 0.5 µM): 0.342
- relative viability (COR-L 105; first compound 0.005 µM): 0.841
- relative viability (COR-L 105; first compound 0.01581 µM): 0.791
- relative viability (COR-L 105; first compound 0.05 µM): 0.417
- relative viability (COR-L 105; first compound 0.1581 µM): 0.469
- relative viability (COR-L 105; first compound 0.5 µM): 0.358
- relative viability (SW 900; first compound 0.005 µM): 0.899
- relative viability (SW 900; first compound 0.01581 µM): 0.797
- relative viability (SW 900; first compound 0.05 µM): 0.413
- relative viability (SW 900; first compound 0.1581 µM): 0.242
- relative viability (SW 900; first compound 0.5 µM): 0.296
- relative viability (SK-MES-1; first compound 0.005 µM): 0.619
- relative viability (SK-MES-1; first compound 0.01581 µM): 0.527
- relative viability (SK-MES-1; first compound 0.05 µM): 0.313
- relative viability (SK-MES-1; first compound 0.1581 µM): 0.173
- relative viability (SK-MES-1; first compound 0.5 µM): 0.183
- relative viability (NCI-H1975; first compound 0.005 µM): 0.671
- relative viability (NCI-H1975; first compound 0.01581 µM): 0.871
- relative viability (NCI-H1975; first compound 0.05 µM): 0.561
- relative viability (NCI-H1975; first compound 0.1581 µM): 0.429
- relative viability (NCI-H1975; first compound 0.5 µM): 0.253
- relative viability (NCI-H520; first compound 0.005 µM): 0.276
- relative viability (NCI-H520; first compound 0.01581 µM): 0.272
- relative viability (NCI-H520; first compound 0.05 µM): 0.337
- relative viability (NCI-H520; first compound 0.1581 µM): 0.263
- relative viability (NCI-H520; first compound 0.5 µM): 0.239
- relative viability (NCI-H1734; first compound 0.005 µM): 0.4
- relative viability (NCI-H1734; first compound 0.01581 µM): 0.243
- relative viability (NCI-H1734; first compound 0.05 µM): 0.183
- relative viability (NCI-H1734; first compound 0.1581 µM): 0.108
- relative viability (NCI-H1734; first compound 0.5 µM): 0.122
- relative viability (NCI-H1666; first compound 0.005 µM): 0.675
- relative viability (NCI-H1666; first compound 0.01581 µM): 0.754
- relative viability (NCI-H1666; first compound 0.05 µM): 0.694
- relative viability (NCI-H1666; first compound 0.1581 µM): 0.613
- relative viability (NCI-H1666; first compound 0.5 µM): 0.684
- relative viability (NCI-H596; first compound 0.005 µM): 0.678
- relative viability (NCI-H596; first compound 0.01581 µM): 0.692
- relative viability (NCI-H596; first compound 0.05 µM): 0.591
- relative viability (NCI-H596; first compound 0.1581 µM): 0.549
- relative viability (NCI-H596; first compound 0.5 µM): 0.435
- relative viability (LOU-NH91; first compound 0.005 µM): 0.89
- relative viability (LOU-NH91; first compound 0.01581 µM): 0.905
- relative viability (LOU-NH91; first compound 0.05 µM): 0.833
- relative viability (LOU-NH91; first compound 0.1581 µM): 0.676
- relative viability (LOU-NH91; first compound 0.5 µM): 0.625
- relative viability (NCI-H23; first compound 0.005 µM): 0.387
- relative viability (NCI-H23; first compound 0.01581 µM): 0.244
- relative viability (NCI-H23; first compound 0.05 µM): 0.227
- relative viability (NCI-H23; first compound 0.1581 µM): 0.121
- relative viability (NCI-H23; first compound 0.5 µM): 0.148
- relative viability (H3255; first compound 0.005 µM): 0.569
- relative viability (H3255; first compound 0.01581 µM): 0.552
- relative viability (H3255; first compound 0.05 µM): 0.495
- relative viability (H3255; first compound 0.1581 µM): 0.526
- relative viability (H3255; first compound 0.5 µM): 0.446
